{
  "source": "patent US20170340636A1",
  "about": "“COMPOSITIONS AND METHODS FOR INHIBITION OF AUTOPHAGY” (Board of Regents, The University of Texas System, priority 2016, published 2017)",
  "key": {"p38": {"target": "p38 (Homo sapiens, UniProt Q16539)", "sequence (Q16539 whole entry)": "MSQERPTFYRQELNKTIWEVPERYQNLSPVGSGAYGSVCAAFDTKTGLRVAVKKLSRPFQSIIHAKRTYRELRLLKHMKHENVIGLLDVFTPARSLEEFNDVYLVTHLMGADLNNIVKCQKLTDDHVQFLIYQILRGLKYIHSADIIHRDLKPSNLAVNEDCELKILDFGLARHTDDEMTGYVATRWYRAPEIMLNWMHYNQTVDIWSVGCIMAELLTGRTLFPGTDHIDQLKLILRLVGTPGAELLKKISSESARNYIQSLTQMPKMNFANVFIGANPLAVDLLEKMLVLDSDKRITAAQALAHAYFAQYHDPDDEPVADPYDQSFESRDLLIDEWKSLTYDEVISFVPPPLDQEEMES", "assay": "DSF against p38 (selectivity panel of MAPK cascade members)", "type": "binding", "details": "difference between the TAOK2 ΔTm and that of p38, DSF", "description": "(§1) Differential scanning fluorimetry binding assays of selected compounds against TAOK2 were conducted to measure strength of compound binding. A solution of 5 μM TAOK2, 50 mM MgCl2, 50 mM HEPES pH 7.5, and 2.5x SyproOrange(Life Technologies) was made. Compound was added to a final concentration of 1 μM. 25 μl of the reaction solution was added to the wells of a Biorad Multiplate 96 wellclear PCR plate. The plate was covered with a Biorad Microseal ‘B’ seal. Plates were read in a Biorad CFX96 Real-Time PCR system. The temperature was increased from 4° C. to 80° C., with fluorescence measurements being taken every 0.5° C. in the 6-FAM Fluorescein channel. The fluorescence response to heat curve was fit to a binding isotherm in order to determine the inflection point, which was taken as the melt temperature (Tm).\n(§2) The difference between the TAOK2 ΔTm and that of p38 and ASK1 was determined. […] The majority of the other compounds were also preferentially inhibitory toward TAOK2. Of the 13 compounds, SW034538, SW172006 and SW083688 were cross-verified for selectivity by performing a specificity screen against 45 kinases commercially at Eurofins Cerep, Inc. (FIG. 3)."}, "ASK1": {"target": "T1, ASK1 (Homo sapiens, UniProt Q99683)", "T1 sequence (Q99683 1-1374)": "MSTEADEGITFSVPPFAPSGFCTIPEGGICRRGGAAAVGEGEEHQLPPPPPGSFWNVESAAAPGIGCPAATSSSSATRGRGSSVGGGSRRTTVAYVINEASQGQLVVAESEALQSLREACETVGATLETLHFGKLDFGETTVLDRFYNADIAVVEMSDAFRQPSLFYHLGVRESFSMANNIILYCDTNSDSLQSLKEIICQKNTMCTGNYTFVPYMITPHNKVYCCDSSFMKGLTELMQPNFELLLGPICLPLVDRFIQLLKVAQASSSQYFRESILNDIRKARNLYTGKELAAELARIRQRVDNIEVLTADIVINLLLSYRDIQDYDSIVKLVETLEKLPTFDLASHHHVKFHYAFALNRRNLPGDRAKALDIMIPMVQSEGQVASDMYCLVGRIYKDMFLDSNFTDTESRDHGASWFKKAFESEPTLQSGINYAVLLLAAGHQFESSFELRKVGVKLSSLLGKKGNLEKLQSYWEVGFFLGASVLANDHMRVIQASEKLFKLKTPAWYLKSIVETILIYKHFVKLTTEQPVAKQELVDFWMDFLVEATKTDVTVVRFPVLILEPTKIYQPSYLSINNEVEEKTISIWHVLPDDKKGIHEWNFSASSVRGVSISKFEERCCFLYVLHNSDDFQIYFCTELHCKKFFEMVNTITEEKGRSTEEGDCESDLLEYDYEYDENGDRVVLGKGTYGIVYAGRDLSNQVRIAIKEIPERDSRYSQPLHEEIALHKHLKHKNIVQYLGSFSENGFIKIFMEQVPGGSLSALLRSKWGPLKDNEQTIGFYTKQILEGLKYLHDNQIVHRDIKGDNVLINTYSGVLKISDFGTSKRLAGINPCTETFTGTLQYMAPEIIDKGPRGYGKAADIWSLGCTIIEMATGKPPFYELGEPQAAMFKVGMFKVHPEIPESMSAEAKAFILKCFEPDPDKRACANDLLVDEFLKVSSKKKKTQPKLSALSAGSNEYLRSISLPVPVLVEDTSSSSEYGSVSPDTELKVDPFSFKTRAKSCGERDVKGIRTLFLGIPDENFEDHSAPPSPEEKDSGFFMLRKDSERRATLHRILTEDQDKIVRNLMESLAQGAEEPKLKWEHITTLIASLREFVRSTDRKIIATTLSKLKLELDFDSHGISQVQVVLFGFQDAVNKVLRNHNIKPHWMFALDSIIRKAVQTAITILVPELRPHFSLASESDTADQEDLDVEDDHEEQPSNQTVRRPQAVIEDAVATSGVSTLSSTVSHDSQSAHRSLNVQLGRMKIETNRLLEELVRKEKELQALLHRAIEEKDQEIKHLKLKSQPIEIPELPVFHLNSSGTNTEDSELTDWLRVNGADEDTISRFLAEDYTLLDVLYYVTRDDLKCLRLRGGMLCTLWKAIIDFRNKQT", "assay": "DSF against ASK1 (selectivity panel of MAPK cascade members)", "type": "binding", "details": "difference between the TAOK2 ΔTm and that of ASK1, DSF", "description": "as §1, §2"}, "U2OS GFP-LC3 cells": {"tested_on": "U2OS GFP-LC3 cells", "assay": "p62 accumulation by western blot (autophagic flux)", "type": "cell-based, human", "details": "50 μM, 24 hours", "description": "FIG. 4A) U2OS cells stably expressing the GFP-LC3 fusion transgene were treated with the indicated compound at 50 μM concentration for 24 hours before GFP fluorescence was measured by flow cytometry. The median fluorescent value from 20,000 cells per condition was normalized to that of vehicle alone (DMSO) within a given experiment. The mean+SD of >2 independent experiments is shown. ****, p<0.0001; ***, p<0.001; **, p<0.01; ns, p>0.05 versus vehicle alone (DMSO) by unpaired t test. FIG. 4B) TAOK2 inhibitors induce accumulation of p62. U2OS GFP-LC3 cells were treated with the indicated compounds at 50 μM concentration, or DMSO alone, for 24 hours. Lysates were collected and analyzed by western blot using the indicated antibodies. XPB was used as a loading control.\nU2OS GFP-LC3 cells were seeded in 6-well plates at 150,000 cells per well in Dulbecco's Modified Eagle Medium supplemented with 10% fetal bovine serum. Twenty-four hours after seeding, the indicated compounds were added to a final concentration of 50 µM, or an equivalent volume of vehicle alone (DMSO) was added. Twenty-four hours after compound addition, cells were rinsed twice with PBS and then lysed in 2× sample buffer. Lysates were boiled for 5 minutes, sonicated to shear DNA, separated by SDS-PAGE, and transferred to PVDF membranes (Biorad). The membranes were blocked in 5% milk in TBS-T (Tris-Buffered-Saline, Tween 20) for one hour at room temperature and then incubated with primary antibody in blocking solution overnight at 4° C. Membranes were then washed, incubated with secondary antibody in blocking solution, washed again, and analyzed by enhanced chemiluminescence followed by exposure to film.\nDegradation of the autophagy scaffold and LC3 binding protein p62 is a second marker of autophagic flux. p62 degradation was assayed by Western blotting (FIG. 4B)."}},
  "data": [
    {"smiles": "CS(=O)(=O)c1ccc2nc(NC(=O)CCCOc3ccc(Cl)cc3)sc2c1", "note": "[SW172006]", "values": [
      {"measurement": "ΔΔTm (p38)", "setting": "p38", "result": 2.0, "unit": "°C"},
      {"measurement": "ΔΔTm (ASK1)", "setting": "ASK1", "result": 1.2, "unit": "°C"},
      {"measurement": "abundance of p62", "setting": "U2OS GFP-LC3 cells", "result": "increased the abundance of p62"}
    ]},
    {"smiles": "CCOCCCn1c(=S)[nH]c2cc(C(=O)NCC3COc4ccccc4O3)ccc2c1=O", "note": "(stereo not drawn) [SW083688]", "values": [
      {"measurement": "ΔΔTm (p38)", "setting": "p38", "result": 2.0, "unit": "°C"},
      {"measurement": "ΔΔTm (ASK1)", "setting": "ASK1", "result": 2.1, "unit": "°C"},
      {"measurement": "abundance of p62", "setting": "U2OS GFP-LC3 cells", "result": "increased the abundance of p62"}
    ]},
    {"smiles": "CCC(=O)Nc1nc(C)c(-c2csc(Nc3cc(OC)ccc3OC)n2)s1", "note": "[SW034538]", "values": [
      {"measurement": "ΔΔTm (p38)", "setting": "p38", "result": 2.8, "unit": "°C"},
      {"measurement": "ΔΔTm (ASK1)", "setting": "ASK1", "result": 2.7, "unit": "°C"},
      {"measurement": "abundance of p62", "setting": "U2OS GFP-LC3 cells", "result": "did not appear to increase the appearance of p62"}
    ]}
  ]
}
